Where two headings read alike, the source gives them in different places.
What was measured:
CDK13/Cyclin K = CDK13/Cyclin K (Homo sapiens, UniProt Q14004); assay: NanoBRET live-cell target engagement, CDK13-NanoLuc/Cyclin K in HEK-293; format: binding; settings: CDK13/K, 10µM
CDK6/Cyclin D1 = CDK6/Cyclin D1 (Homo sapiens, UniProt Q00534); assay: NanoBRET live-cell target engagement, NanoLuc-CDK6/Cyclin D1 in HEK-293; format: binding; settings: CDK6/D1, 10µM
CDK1/Cyclin E1 = CDK1/Cyclin E1 (Homo sapiens, UniProt P06493); assay: NanoBRET live-cell target engagement, CDK1-NanoLuc/Cyclin E1 in HEK-293; format: binding; settings: CDK1/E1, 10µM
CDK2/Cyclin E1 = CDK2/Cyclin E1 (Homo sapiens, UniProt P24941); assay: NanoBRET live-cell target engagement, CDK2-NanoLuc/Cyclin E1 in HEK-293; format: binding; settings: CDK2/E1, 10µM
CDK5/CDK5R1 = CDK5/CDK5R1 (Homo sapiens, UniProt Q00535); assay: NanoBRET live-cell target engagement, CDK5-NanoLuc/CDK5R1 in HEK-293; format: binding; settings: CDK5/CDK5R1, 10µM
CDK11B/Cyclin L2 = CDK11B/Cyclin L2 (Homo sapiens, UniProt P21127); assay: NanoBRET live-cell target engagement, CDK11B-NanoLuc/Cyclin L2 in HEK-293; format: binding; settings: CDK11b/L2, 10µM
CDK8/Cyclin C = CDK8/Cyclin C (Homo sapiens, UniProt P49336); assay: NanoBRET live-cell target engagement, NanoLuc-CDK8/Cyclin C in HEK-293; format: binding
CDK20/Cyclin H = CDK20/Cyclin H (Homo sapiens, UniProt Q8IZL9); assay: NanoBRET live-cell target engagement, NanoLuc-CDK20/Cyclin H in HEK-293; format: binding; settings: CDK20/H, 10µM
CDK11A/Cyclin L2 = biological target: T1, CDK11A/Cyclin L2 (Homo sapiens, UniProt Q9UQ88); assay: NanoBRET live-cell target engagement, CDK11A-NanoLuc/Cyclin L2 in HEK-293; format: binding; settings: CDK11a/L2, 10µM
T1 sequence (Q9UQ88 1-783): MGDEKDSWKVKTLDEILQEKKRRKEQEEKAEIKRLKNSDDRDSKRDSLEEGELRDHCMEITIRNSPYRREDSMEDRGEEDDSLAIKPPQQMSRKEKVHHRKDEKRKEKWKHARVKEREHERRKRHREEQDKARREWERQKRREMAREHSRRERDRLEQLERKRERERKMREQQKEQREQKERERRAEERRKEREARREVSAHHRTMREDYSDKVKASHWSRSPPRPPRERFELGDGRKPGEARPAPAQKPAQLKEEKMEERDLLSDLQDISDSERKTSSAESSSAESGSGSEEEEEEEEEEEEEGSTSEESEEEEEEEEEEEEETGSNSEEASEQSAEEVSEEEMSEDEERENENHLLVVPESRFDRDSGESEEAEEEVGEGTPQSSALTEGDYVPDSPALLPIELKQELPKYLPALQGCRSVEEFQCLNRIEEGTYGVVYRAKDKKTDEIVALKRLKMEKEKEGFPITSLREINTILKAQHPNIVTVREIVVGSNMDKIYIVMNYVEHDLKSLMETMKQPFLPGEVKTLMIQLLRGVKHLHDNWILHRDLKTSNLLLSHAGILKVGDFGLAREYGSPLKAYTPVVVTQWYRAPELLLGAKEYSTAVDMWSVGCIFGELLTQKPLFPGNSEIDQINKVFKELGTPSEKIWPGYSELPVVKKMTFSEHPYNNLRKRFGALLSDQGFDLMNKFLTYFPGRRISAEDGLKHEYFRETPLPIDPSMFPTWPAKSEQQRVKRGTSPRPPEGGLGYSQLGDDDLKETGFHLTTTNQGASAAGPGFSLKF

CDK12/Cyclin K = CDK12/Cyclin K (Homo sapiens, UniProt Q9NYV4); assay: NanoBRET live-cell target engagement, CDK12-NanoLuc/Cyclin K in HEK-293; format: binding; settings: CDK12/K, 10µM
CDK10/Cyclin L2 = CDK10/Cyclin L2 (Homo sapiens, UniProt Q15131); assay: NanoBRET live-cell target engagement, CDK10-NanoLuc/Cyclin L2 in HEK-293; settings: 10µM
CDK9/Cyclin K = CDK9/Cyclin K (Homo sapiens, UniProt P50750); assay: NanoBRET live-cell target engagement, NanoLuc-CDK9/Cyclin K in HEK-293; format: binding; settings: CDK9/K, 10µM
CDK4/Cyclin D1 = CDK4/Cyclin D1 (Homo sapiens, UniProt P11802); assay: NanoBRET live-cell target engagement, NanoLuc-CDK4/Cyclin D1 in HEK-293; format: binding; settings: CDK4/D1, 10µM
CDK19/Cyclin C = CDK19/Cyclin C (Homo sapiens, UniProt Q9BWU1); assay: NanoBRET live-cell target engagement, NanoLuc-CDK19/Cyclin C in HEK-293
[1] = average of replicates, read-out: Inhibition at 10µM (%) Average
[2] = read-out: Inhibition at 10µM (%) Replicate 1
[3] = read-out: Inhibition at 10µM (%) Replicate 2

Chain of CDK4/Cyclin D1 (P11802 whole entry): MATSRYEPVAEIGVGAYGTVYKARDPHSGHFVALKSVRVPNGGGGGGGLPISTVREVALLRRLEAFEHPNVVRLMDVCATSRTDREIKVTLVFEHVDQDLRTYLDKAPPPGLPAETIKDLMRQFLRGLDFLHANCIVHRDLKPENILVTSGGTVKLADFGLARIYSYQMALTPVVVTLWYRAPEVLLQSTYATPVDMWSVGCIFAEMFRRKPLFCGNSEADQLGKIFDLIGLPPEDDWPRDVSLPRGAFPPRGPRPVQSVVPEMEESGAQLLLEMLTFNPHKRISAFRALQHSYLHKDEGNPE
Chain of CDK4/Cyclin D1 (P24385 whole entry partner): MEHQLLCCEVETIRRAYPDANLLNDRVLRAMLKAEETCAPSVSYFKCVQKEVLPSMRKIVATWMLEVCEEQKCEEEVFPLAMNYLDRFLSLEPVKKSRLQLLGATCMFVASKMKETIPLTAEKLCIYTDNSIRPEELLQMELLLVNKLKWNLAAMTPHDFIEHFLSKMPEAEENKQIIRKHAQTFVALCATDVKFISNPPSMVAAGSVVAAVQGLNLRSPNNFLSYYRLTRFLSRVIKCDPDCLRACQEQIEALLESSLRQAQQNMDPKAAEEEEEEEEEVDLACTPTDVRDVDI
Chain of CDK19/Cyclin C (Q9BWU1 whole entry): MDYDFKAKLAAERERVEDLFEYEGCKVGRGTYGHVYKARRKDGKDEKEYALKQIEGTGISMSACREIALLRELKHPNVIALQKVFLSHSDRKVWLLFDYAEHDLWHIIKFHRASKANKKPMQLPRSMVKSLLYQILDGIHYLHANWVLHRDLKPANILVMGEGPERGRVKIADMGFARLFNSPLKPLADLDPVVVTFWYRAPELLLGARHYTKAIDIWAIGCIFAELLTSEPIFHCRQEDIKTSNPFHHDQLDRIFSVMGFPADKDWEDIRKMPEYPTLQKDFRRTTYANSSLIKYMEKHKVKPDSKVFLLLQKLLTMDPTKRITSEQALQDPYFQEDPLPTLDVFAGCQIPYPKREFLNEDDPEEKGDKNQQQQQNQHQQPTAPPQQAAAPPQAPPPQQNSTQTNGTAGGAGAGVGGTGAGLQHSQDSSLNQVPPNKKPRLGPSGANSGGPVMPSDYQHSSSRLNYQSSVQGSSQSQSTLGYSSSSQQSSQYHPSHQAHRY
Chain of CDK19/Cyclin C (P24863 whole entry partner): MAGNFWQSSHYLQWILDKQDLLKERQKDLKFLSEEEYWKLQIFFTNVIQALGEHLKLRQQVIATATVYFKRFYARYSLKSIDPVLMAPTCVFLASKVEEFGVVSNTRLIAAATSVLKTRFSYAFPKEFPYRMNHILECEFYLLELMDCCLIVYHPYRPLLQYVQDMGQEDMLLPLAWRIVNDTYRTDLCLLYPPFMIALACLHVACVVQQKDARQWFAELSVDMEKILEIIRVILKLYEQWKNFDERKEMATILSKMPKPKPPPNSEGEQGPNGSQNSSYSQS
Chain of CDK8/Cyclin C (P49336 whole entry): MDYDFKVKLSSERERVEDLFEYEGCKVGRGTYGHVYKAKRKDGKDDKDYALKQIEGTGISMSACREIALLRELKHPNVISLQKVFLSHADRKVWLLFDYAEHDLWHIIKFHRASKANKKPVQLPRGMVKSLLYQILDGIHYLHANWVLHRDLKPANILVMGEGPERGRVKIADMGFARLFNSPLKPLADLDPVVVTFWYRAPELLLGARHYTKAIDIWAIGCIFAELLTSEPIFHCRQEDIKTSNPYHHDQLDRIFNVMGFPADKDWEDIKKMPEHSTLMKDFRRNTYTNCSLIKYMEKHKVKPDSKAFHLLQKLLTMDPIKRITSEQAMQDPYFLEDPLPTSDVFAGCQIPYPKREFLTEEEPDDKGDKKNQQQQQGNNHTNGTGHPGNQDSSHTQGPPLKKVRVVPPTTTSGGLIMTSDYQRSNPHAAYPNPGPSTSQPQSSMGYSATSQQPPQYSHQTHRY
Chain of CDK8/Cyclin C (P24863 whole entry partner): as the sequence (P24863 whole entry partner) above
Chain of CDK1/Cyclin E1 (P06493 whole entry): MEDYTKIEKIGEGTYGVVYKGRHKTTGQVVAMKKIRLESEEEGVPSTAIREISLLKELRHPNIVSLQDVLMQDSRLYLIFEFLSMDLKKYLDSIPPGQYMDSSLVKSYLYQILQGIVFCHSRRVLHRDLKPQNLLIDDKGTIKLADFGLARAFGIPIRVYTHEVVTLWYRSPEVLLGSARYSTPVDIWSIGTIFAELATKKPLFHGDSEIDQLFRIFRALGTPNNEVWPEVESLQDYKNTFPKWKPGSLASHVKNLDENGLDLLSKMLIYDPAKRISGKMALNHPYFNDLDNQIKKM
Chain of CDK1/Cyclin E1 (P24864 whole entry partner): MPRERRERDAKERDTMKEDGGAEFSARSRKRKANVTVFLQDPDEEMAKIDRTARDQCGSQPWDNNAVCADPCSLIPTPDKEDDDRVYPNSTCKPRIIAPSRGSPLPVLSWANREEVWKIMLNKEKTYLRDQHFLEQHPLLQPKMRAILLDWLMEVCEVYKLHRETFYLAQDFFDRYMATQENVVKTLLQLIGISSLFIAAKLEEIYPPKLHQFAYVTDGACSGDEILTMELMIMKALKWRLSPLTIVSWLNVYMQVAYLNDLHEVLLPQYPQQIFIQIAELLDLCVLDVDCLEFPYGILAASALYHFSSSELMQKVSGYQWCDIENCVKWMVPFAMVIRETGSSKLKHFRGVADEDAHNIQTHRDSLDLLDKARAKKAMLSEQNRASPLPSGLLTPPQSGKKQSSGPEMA
Chain of CDK11B/Cyclin L2 (P21127 1-782 isoform P21127-2): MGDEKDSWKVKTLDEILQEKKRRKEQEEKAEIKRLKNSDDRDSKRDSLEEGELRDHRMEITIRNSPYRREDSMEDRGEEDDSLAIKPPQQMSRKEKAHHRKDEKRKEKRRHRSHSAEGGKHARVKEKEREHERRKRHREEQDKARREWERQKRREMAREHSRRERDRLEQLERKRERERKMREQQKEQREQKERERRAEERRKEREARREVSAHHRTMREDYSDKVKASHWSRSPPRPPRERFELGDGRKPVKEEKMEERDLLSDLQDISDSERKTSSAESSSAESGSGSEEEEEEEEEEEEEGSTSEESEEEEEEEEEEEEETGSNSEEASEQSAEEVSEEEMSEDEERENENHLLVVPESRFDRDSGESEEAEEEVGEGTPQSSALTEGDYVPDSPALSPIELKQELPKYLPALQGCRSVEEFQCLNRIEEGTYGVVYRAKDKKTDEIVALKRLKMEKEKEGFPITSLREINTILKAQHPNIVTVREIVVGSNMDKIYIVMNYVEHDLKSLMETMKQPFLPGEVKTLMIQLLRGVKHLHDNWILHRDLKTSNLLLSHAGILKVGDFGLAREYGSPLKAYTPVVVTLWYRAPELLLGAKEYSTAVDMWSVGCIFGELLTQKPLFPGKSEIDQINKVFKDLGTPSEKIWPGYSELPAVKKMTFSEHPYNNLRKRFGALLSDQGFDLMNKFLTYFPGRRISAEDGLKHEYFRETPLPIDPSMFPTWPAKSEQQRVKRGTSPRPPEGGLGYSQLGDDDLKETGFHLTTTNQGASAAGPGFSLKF
Chain of CDK5/CDK5R1 (Q00535 whole entry): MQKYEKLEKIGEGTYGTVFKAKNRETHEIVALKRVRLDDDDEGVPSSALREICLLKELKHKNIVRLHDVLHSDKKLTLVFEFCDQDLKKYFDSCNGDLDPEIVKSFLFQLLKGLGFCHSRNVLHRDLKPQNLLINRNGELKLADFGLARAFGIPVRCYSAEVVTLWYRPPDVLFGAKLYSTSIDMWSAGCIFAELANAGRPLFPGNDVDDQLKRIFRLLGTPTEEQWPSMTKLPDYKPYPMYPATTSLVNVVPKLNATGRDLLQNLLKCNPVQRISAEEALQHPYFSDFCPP
Chain of CDK5/CDK5R1 (Q15078 whole entry partner): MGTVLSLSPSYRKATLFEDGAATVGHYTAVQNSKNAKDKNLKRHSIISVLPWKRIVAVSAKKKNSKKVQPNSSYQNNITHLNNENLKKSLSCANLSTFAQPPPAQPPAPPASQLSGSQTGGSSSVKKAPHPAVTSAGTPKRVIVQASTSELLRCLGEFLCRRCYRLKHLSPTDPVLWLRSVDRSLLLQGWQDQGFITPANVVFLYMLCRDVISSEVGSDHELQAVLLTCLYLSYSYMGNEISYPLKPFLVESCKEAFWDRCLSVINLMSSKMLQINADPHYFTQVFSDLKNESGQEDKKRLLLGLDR
Chain of CDK9/Cyclin K (P50750 whole entry): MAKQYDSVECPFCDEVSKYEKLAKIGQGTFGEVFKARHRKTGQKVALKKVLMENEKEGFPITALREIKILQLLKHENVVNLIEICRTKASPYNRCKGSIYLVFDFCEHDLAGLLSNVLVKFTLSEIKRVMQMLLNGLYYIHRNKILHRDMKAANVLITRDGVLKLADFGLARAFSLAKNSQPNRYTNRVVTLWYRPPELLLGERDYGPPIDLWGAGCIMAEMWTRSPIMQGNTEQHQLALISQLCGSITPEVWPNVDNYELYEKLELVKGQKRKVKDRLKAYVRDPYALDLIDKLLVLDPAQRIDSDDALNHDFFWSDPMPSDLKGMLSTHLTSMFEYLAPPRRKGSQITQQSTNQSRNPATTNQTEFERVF
Chain of CDK9/Cyclin K (O75909 whole entry partner): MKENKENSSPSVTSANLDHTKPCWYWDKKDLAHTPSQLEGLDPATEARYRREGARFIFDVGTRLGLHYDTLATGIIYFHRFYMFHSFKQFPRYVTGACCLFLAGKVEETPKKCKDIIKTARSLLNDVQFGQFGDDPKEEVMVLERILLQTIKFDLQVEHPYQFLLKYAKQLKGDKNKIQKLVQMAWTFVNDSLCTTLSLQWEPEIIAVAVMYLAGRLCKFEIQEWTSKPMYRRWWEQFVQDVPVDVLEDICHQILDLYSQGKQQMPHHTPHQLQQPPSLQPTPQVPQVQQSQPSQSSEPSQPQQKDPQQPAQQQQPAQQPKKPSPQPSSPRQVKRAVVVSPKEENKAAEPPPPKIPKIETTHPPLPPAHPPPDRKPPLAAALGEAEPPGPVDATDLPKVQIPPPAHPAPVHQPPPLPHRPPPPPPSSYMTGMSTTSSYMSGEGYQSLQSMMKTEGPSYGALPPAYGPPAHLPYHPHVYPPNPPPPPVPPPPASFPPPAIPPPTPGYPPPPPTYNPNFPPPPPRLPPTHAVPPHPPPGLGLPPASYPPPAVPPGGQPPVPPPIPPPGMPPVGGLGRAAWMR

CCN1CCN(Cc2ccc(NC(=O)Nc3ccc(Oc4cc(NC)ncn4)cc3)cc2C(F)(F)F)CC1 [AST-487] showed an inhibition at 10 µM (CDK13/Cyclin K; [1]) of 47.2%, an inhibition at 10 µM (CDK13/Cyclin K; [2]) of 28% and an inhibition at 10 µM (CDK13/Cyclin K; [3]) of 66.3%. The inhibition at 10 µM (CDK6/Cyclin D1; [1]) was 50.9%, the inhibition at 10 µM (CDK6/Cyclin D1; [2]) was 15.7% and the inhibition at 10 µM (CDK6/Cyclin D1; [3]) was 86.2%. For the same compound, the inhibition at 10 µM (CDK1/Cyclin E1; [1]) was 75.2%, the inhibition at 10 µM (CDK1/Cyclin E1; [2]) was 59.8% and the inhibition at 10 µM (CDK1/Cyclin E1; [3]) was 90.6%. The inhibition at 10 µM (CDK2/Cyclin E1; [1]) was 2.9%, the inhibition at 10 µM (CDK2/Cyclin E1; [2]) was -18.7% and the inhibition at 10 µM (CDK2/Cyclin E1; [3]) was 24.5%. It also gave an inhibition at 10 µM (CDK5/CDK5R1; [1]) of 38.1%, an inhibition at 10 µM (CDK5/CDK5R1; [2]) of 12.7% and an inhibition at 10 µM (CDK5/CDK5R1; [3]) of 63.5%. For the same compound, the inhibition at 10 µM (CDK11B/Cyclin L2; [1]) was 10.3%, the inhibition at 10 µM (CDK11B/Cyclin L2; [2]) was 10.9% and the inhibition at 10 µM (CDK11B/Cyclin L2; [3]) was 9.7%. It also gave an inhibition at 10 µM (CDK8/Cyclin C; CDK8/C, average of replicates, read-out: Inhibition at 10µM (%) Average) of 95.7%, an inhibition at 10 µM (CDK8/Cyclin C; CDK8/C, read-out: Inhibition at 10µM (%) Replicate 1) of 95.7% and an inhibition at 10 µM (CDK8/Cyclin C; CDK8/C, read-out: Inhibition at 10µM (%) Replicate 2) of 95.7%. For the same compound, the IC50 (CDK8/Cyclin C; CDK8/C, n=3 average ± SEM, n=2 average to 2 significant figures, read-out: IC50 (nM) Average*) was 24 nM, the IC50 (CDK8/Cyclin C; CDK8/C, read-out: IC50 (nM) Replicate 1) was 23 nM and the IC50 (CDK8/Cyclin C; CDK8/C, read-out: IC50 (nM) Replicate 2) was 25 nM. For the same compound, the IC50 (CDK8/Cyclin C; [Probe 3] 0.5 µM, n=1, read-out: IC50) was 48 nM, the inhibition at 10 µM (CDK20/Cyclin H; [2]) was 38.4% and the inhibition at 10 µM (CDK20/Cyclin H; [3]) was 80.6%. For the same compound, the inhibition at 10 µM (CDK11A/Cyclin L2; [1]) was 49%, the inhibition at 10 µM (CDK11A/Cyclin L2; [2]) was 22.5% and the inhibition at 10 µM (CDK11A/Cyclin L2; [3]) was 75.4%. For the same compound, the inhibition at 10 µM (CDK12/Cyclin K; [1]) was 53.4%, the inhibition at 10 µM (CDK12/Cyclin K; [2]) was 34.4% and the inhibition at 10 µM (CDK12/Cyclin K; [3]) was 72.3%. For the same compound, the inhibition at 10 µM (CDK10/Cyclin L2; read-out: Inhibition at 10µM (%) Average, CDK10/L2, average of replicates) was 84.1%, the inhibition at 10 µM (CDK10/Cyclin L2; read-out: Inhibition at 10µM (%) Replicate 1, CDK10/L2) was 74.4% and the inhibition at 10 µM (CDK10/Cyclin L2; read-out: Inhibition at 10µM (%) Replicate 2, CDK10/L2) was 93.8%. The inhibition at 10 µM (CDK9/Cyclin K; [1]) was 83.3%, the inhibition at 10 µM (CDK9/Cyclin K; [2]) was 72.3% and the inhibition at 10 µM (CDK9/Cyclin K; [3]) was 94.4%. The inhibition at 10 µM (CDK4/Cyclin D1; [1]) was 75.5%, the inhibition at 10 µM (CDK4/Cyclin D1; [2]) was 55.7% and the inhibition at 10 µM (CDK4/Cyclin D1; [3]) was 95.3%. The IC50 (CDK19/Cyclin C; IC50 (nM) Average*, CDK19/Y, n=3 average ± SEM, n=2 average to 2 significant figures) was 25 nM, the IC50 (CDK19/Cyclin C; IC50 (nM) Replicate 1, CDK19/C) was 28 nM and the IC50 (CDK19/Cyclin C; IC50 (nM) Replicate 2, CDK19/C) was 22 nM. For the same compound, the IC50 (CDK19/Cyclin C; IC50, [Probe 1] 0.5 µM (plot: [Probe 3]), n=1) was 9.4 nM, the IC50 (CDK19/Cyclin C; IC50, [Probe 1] 1 µM (plot: [Probe 3]), n=1) was 10 nM and the inhibition at 10 µM (CDK19/Cyclin C; read-out: Inhibition at 10µM (%) Average, CDK19/C, average of replicates) was 98.4%. It also gave an inhibition at 10 µM (CDK19/Cyclin C; read-out: Inhibition at 10µM (%) Replicate 1, CDK19/C) of 94.2% and an inhibition at 10 µM (CDK19/Cyclin C; read-out: Inhibition at 10µM (%) Replicate 2, CDK19/C) of 103%.

Reference: publication PMC7265341, “Quantifying CDK inhibitor selectivity in live cells” (Nature Communications, 2020)
